Data from paper PMC9140012, “Epigenetic-Like Stimulation of Receptor Expression in SSTR2 Transfected HEK293 Cells as a New Therapeutic Strategy” (Cancers, 2022).
Where “and” joins values, the source holds several entries; their conditions need not be identical. Equal entries are not always repeated.

Experiments:
[1] = tested on: Forskolin-stimulated cAMP production; design: method as in PMID 29599907; settings: BON-1 and QGP-1 stimulated with 5-aza-dC and VPA; cited from earlier work
[2] = tested on: SSTR2 in HEKsst2 cells; experiment: Saturation binding of Lu-177-DOTATATE, HEKsst2; design: species or system murine; settings: for Kd: excess DOTATATE for non-specific binding; for number of binding sites per cell: from Bmax
Method: (§1) HEK293 cells were obtained from the German Resource Center for Biological Material (DSMZ, Braunschweig, Germany) and grown in Dulbecco’s modified Eagle´s medium supplemented with 10% fetal calf serum (FCS) in a humidified atmosphere containing 5% CO2. Cells were transfected with plasmid, encoding murine HA-tagged SSTR2 receptors using lipofectamine according to the manufacturing instructions (Thermofisher, Darmstadt, Germany). Stable transfectants were selected in the presence of 500 µg/mL G-418 and characterized using radioligand binding assays, Western blot analyses, surface ELISA assays and immunocytochemistry as described previously. Non-transfected HEK293 cells were maintained under equal conditions as HEKsst2 except for the addition of G-418. In the following, HEK293 cells and SSTR2 transfected HEK293 cells are termed as HEK and HEKsst2, respectively. The human prostate carcinoma cell line PC3 (ATCC®, Manassas, VA, USA) was cultured in a RPMI medium with 10% (v/v) FCS and 1% (v/v) non-essential amino acids (NEA). […] The culture medium of each cell line was renewed every 2–3 days. Via a PCR test, each cell line is proven to be free of mycoplasmas.
Excess DOTATATE (3.5 × 10^−3–7.03 nmol) was used to block receptors and determine the non-specific binding. The uptake data (triplicates per each condition) were fitted to a one-site binding model in GraphPad Prism 9.0 to determine the number of binding sites (Bmax) and the dissociation constant (Kd).
To determine the Bmax values and the Kd, the GraphPad Prism 9.0 software was used. Confidence Intervals (CI) express a 95% likelihood of the nonlinear fit.

[3] = tested on: PC3 cells; experiment: Radiotoxicity of Lu-177-DOTATATE on unstimulated and stimulated PC3 (CFA); assay type: cell-based, human; settings: for cell survival of stimulated vs unstimulated PC3: 5-aza-dC and VPA
Method: (§2) The stimulation process followed the protocol described above.
(§3) To determine the radiosensitivity and radiotoxicity, the clonogene cell survival was analyzed. Colony formation assays were performed as described earlier. The following steps have been done for each of the treatment procedures. Briefly, after detaching the treated cells, an aliquot of the cell suspension per dose point was distributed in T25 culture flasks for the colony formation test and is placed in an incubator for 7 (HEKsst2) or 10 days (PC3). To stop colony formation, the cells were fixed with ethanol 80% (v/v) followed by staining with crystal violet solution. The colony counting was carried out under a microscope (25× magnification). Colonies of more than 50 cells were scored as survivors. The plating efficiency (PE) and the survival rate (survival fraction SF) were calculated for irradiated and unirradiated cells based on the number of seeded cells.

[4] = tested on: HEKsst2 cells; experiment: Radiotoxicity of Lu-177-DOTATATE on unstimulated and stimulated HEKsst2 (CFA); assay type: cell-based; settings: for Survival Fraction: 24 h
Method: as §2, §3

[5] = tested on: PC3 cells; experiment: Radiotoxic dose-response of Lu-177-DOTATATE (CFA), unstimulated PC3; assay type: cell-based, human; settings: up to 0.5 MBq/mL, 24 h, compared with HEKsst2
Method: (§4) To show the dose-response relationship, the unstimulated HEKsst2 and PC3 cells were irradiated with absorbed doses of 0.1–7.5 Gy in an X-ray tube.
as §3

[6] = tested on: PC3 cells; experiment: Intracellular Lu-177-DOTATATE uptake, PC3; assay type: cell-based, human; settings: 50 kBq
Method: HEK293 cells were obtained from the German Resource Center for Biological Material (DSMZ, Braunschweig, Germany) and grown in Dulbecco’s modified Eagle´s medium supplemented with 10% fetal calf serum (FCS) in a humidified atmosphere containing 5% CO2. Cells were transfected with plasmid, encoding murine HA-tagged SSTR2 receptors using lipofectamine according to the manufacturing instructions (Thermofisher, Darmstadt, Germany). Stable transfectants were selected in the presence of 500 µg/mL G-418 and characterized using radioligand binding assays, Western blot analyses, surface ELISA assays and immunocytochemistry as described previously. Non-transfected HEK293 cells were maintained under equal conditions as HEKsst2 except for the addition of G-418. In the following, HEK293 cells and SSTR2 transfected HEK293 cells are termed as HEK and HEKsst2, respectively. […]
After incubation times, the supernatant of the well was removed and the cells were washed twice with PBS (phosphate buffered saline) at 4 °C. […] The activity of all fractions was measured using a Gamma-Counter (Cobra II, Autogamma, Packard®, Canberra Company, Ruesselsheim, Germany). The intracellular activity was expressed as a percentage of the total activity normalized to the cell count of 2.0 × 10^5. […]

[7] = tested on: cell lines HEKsst2 and PC3; experiment: A80/A60 of Lu-177-DOTATATE by colony formation assay, HEKsst2 and PC3; assay type: cell-based; settings: 24 h incubation, value used for both HEKsst2 and PC3
Method: as §4, §2, §3

[8] = tested on: HEKsst2 cells; experiment: Radiotoxic dose-response of Lu-177-DOTATATE (CFA), unstimulated HEKsst2; assay type: cell-based
Method: as §4, §3

[9] = tested on: SSTR2 in HEKsst2 cells; experiment: Intracellular Lu-177-DOTATATE uptake, HEKsst2; assay type: cell-based, murine; settings: for Lu-177-DOTATATE uptake (intracellular activity, % of total activity normalized to 2.0 × 10^5 cells): 37 °C; for Lu-177-DOTATATE uptake (intracellular activity, % of total activity normalized to 2.0 × 10^5 cells) / increase of Lu-177-DOTATATE uptake by a factor: 50 kBq; for increase of Lu-177-DOTATATE uptake by a factor: stimulated (5.0 µM 5-aza-dC, 1.85 mM VPA) vs unstimulated
Method: as §1
After incubation times, the supernatant of the well was removed and the cells were washed twice with PBS (phosphate buffered saline) at 4 °C. Supernatant and washed solution make up the non-bound fraction of the radioligand. The cell layers were lysed with 1 mL 0.1 M NaOH for 10 min at 37 °C. These fractions correspond to the intracellular fraction of radioligand. The activity of all fractions was measured using a Gamma-Counter (Cobra II, Autogamma, Packard®, Canberra Company, Ruesselsheim, Germany). The intracellular activity was expressed as a percentage of the total activity normalized to the cell count of 2.0 × 10^5.
To examine the statistical significance, an unpaired student’s t-test was used. A difference between two independent samples is significant if the probability of error p ≤ 0.05. For the statistical evaluation, MS Office Excel was used.

octreotide
inhibition of the Forskolin-stimulated cAMP production [1]: inhibition of the Forskolin-stimulated cAMP production

(DOTA)-[Tyr3, Thr8]-octreotide [Lu-177-DOTATATE, SSTR2-targeted radioligand, Lu-177 labelled (DOTA)-[Tyr3, Thr8]-octreotide]
Bmax ([2]; HEKsst2 stimulated with 5-aza-dC and VPA, 1 h, 37 °C, one-site model, specific binding, 95% CI = 1.08 × 10^−9 to 1.62 × 10^−9 nmol): 1.32e-09 nmol
Kd ([2]; HEKsst2 stimulated with 5-aza-dC and VPA, 1 h, 37 °C, one-site model): 4.88 nM
number of binding sites per cell ([2]; HEKsst2 stimulated with 5-aza-dC and VPA): 7.95 × 10^5
maximum total binding ([2]; almost reached at 0.5 MBq/mL Lu-177-DOTATATE, HEKsst2): 17 kBq/500,000 cells
Bmax ([2]; as restated in the discussion (Figure 3), unstimulated HEKsst2): 4.4 × 10^−10 nmol/cell
Bmax as bound activity ([2]; corresponds to Bmax = 4.4 × 10^−10 nmol/cell): 15.5 kBq/500,000 cells
Bmax ([2]; unstimulated HEKsst2, 1 h, 37 °C, one-site model, specific binding, 95% CI = 4.15 × 10^−10 to 4.58 × 10^−10 nmol): 4.36e-10 nmol
Kd ([2]; unstimulated HEKsst2, 1 h, 37 °C, one-site model): 2.1 nM
number of binding sites per cell ([2]; unstimulated HEKsst2): 2.63 × 10^5
number of binding sites per cell, unstimulated compared to stimulated ([2]; unstimulated vs stimulated HEKsst2): three-fold lower
cell survival of stimulated vs unstimulated PC3 ([3]; 57.5 kBq/mL Lu-177-DOTATATE, not statistically significant, p = 0.5482): higher SF fractions
cell survival of stimulated vs unstimulated PC3 ([3]; 136 kBq/mL Lu-177-DOTATATE, p = 0.5078): only a slight, statistically insignificant difference
radiotoxic effects when stimulated with 5-aza-dC and VPA ([3]; PC3, Lu-177-DOTATATE 57.5 and 136 kBq/mL): no increase regarding the radiotoxic effects
Survival Fraction ([4]; 57.5 kBq/mL Lu-177-DOTATATE, non-stimulated): 0.54
Survival Fraction ([4]; 57.5 kBq/mL Lu-177-DOTATATE, stimulated with 5-aza-dC 0.25 µM and VPA 0.6 mM, normalized to SF = 1, p = 0.1424 vs unstimulated): 0.27
factor of increase of radiotoxic effects, stimulated vs unstimulated ([4]; 57.5 kBq/mL, 5-aza-dC 0.25 µM and VPA 0.6 mM): 2
Survival Fraction ([4]; 136 kBq/mL Lu-177-DOTATATE, stimulated with 5-aza-dC 0.46 µM and VPA 1.0 mM, normalized to SF = 1, p = 0.0029 vs unstimulated): 0.09 and 0.1
Survival Fraction ([4]; 136 kBq/mL Lu-177-DOTATATE, unstimulated): 0.42
factor of lower survival, stimulated vs unstimulated (radiotoxic effect increase) ([4]; 136 kBq/mL, 5-aza-dC 0.46 µM and VPA 1.0 mM): 4
decrease of the survival with Lu-177-DOTATATE concentration [5]: much less pronounced
Lu-177-DOTATATE uptake values compared to unstimulated cells ([6]; stimulated PC3, 1 h, p = 0.4935): marginal increase
Lu-177-DOTATATE uptake values compared to unstimulated cells ([6]; stimulated PC3, 24 h, p = 0.3694): marginal increase
A60 ([7]; activity equivalent to X-ray D60 (1.2 Gy)): 136 kBq/mL
A80 ([7]; activity equivalent to X-ray D80 (0.6 Gy)): 57.5 kBq/mL
radioactivity concentration at which all SST2 receptors are engaged (assumed) ([8]; HEKsst2, equal to approximately 0.34 ng/500,000 cells): 0.5 MBq/mL
decrease of SF values with Lu-177-DOTATATE concentration ([8]; unstimulated HEKsst2, 0.05-5 MBq/mL, 24 h): strong dose-dependent decrease of the SF values until the receptors seemed to be saturated
Lu-177-DOTATATE uptake (intracellular activity, % of total activity normalized to 2.0 × 10^5 cells) ([9]; 1 h, cells stimulated 5 days with 5.0 µM 5-aza-dC and 1.85 mM VPA, p = 0.0142 vs unstimulated, gamma counter): 50.2%
Lu-177-DOTATATE uptake (intracellular activity, % of total activity normalized to 2.0 × 10^5 cells) ([9]; 1 h, unstimulated cells): 1.8%
increase in Lu-177-DOTATATE uptake vs unstimulated ([9]; 1 h, 0.1 µM 5-aza-dC (and 1.85 mM VPA), p = 0.060): also shows stimulatory effects, no significant difference was found
increase in Lu-177-DOTATATE uptake vs unstimulated ([9]; 1 h, 5.0 µM 5-aza-dC and 1.85 mM VPA, p < 0.05): 2800%
Lu-177-DOTATATE uptake (intracellular activity, % of total activity normalized to 2.0 × 10^5 cells) ([9]; 24 h, cells stimulated with 5.0 µM 5-aza-dC and 1.85 mM VPA, p = 0.0090 vs unstimulated): 36.2%
Lu-177-DOTATATE uptake (intracellular activity, % of total activity normalized to 2.0 × 10^5 cells) ([9]; 24 h, unstimulated cells): 5.6%
increase in Lu-177-DOTATATE uptake vs unstimulated ([9]; 24 h, 3.9 µM 5-aza-dC and 1.85 mM VPA, p < 0.05): ≈ 640%
increase in Lu-177-DOTATATE uptake vs unstimulated ([9]; 24 h, 5.0 µM 5-aza-dC and 1.85 mM VPA, p < 0.05): ≈ 640%
increase of Lu-177-DOTATATE uptake by a factor ([9]; 1 h, p = 0.0142): 28
increase of Lu-177-DOTATATE uptake by a factor ([9]; 24 h, p = 0.0090): 6.5
